# Read-outs that look alike come from different tables or passages of the source.
# What was measured:
# [1] = cited from earlier work
# [2] = substituent constant, from Hansch and Leo or calculated using Clog P software; cited from earlier work
# OVCAR3 ovarian = experiment: Cytotoxicity in tumor cell culture, SRB assay; type: cell-based, human; settings: read-out: IC50 against human mouse tumors, OVCAR3 ovarian
# Description: (§1) Relative potencies of the N-substituted 2-cyanoaziridine-1-carboxamides in a panel of tumor cell cultures are compared in Table 3. This panel includes the following lines of human tumor cells: sensitive and imexon-resistant lines of multiple myeloma (Matsuoka et al., 1967); ovarian carcinoma resistant to standard drugs (Hamilton et al., 1984); melanoma with a slow growth fraction (Girard et al., 1973); breast carcinoma including sensitive, doxorubicin-resistant (P-glycoprotein-positive) (Taylor et al., 1991), and mitoxantrone-resistant (P-glycoprotein-negative) (Futscher et al., 1994) lines; sensitive and multidrug-resistant colon carcinoma (Noguchi et al., 1979; Dalton et al., 1988); and multidrug-resistant lung carcinoma (P-glycoprotein-negative) (Girard et al., 1973). It also has sensitive (Goldin et al., 1961) and multidrug-resistant (P-glycoprotein-positive) (Salmon and Hersh, 1994) murine L1210 leukemia cells.
# MCF7 breast, Sens = experiment: Cytotoxicity in tumor cell culture, SRB assay; type: cell-based, human; settings: read-out: IC50 against human mouse tumors, MCF7 breast Sens
# Description: as §1
# A-549 lung = experiment: Cytotoxicity in tumor cell culture, SRB assay; type: cell-based, human; settings: read-out: IC50 against human mouse tumors, A-549 lung
# Description: as §1
# [3] = test system: MCF7 breast, Dox (doxorubicin-resistant); experiment: Cytotoxicity in tumor cell culture, SRB assay; type: cell-based, human; settings: doxorubicin-resistant, read-out: IC50 against human mouse tumors, MCF7 breast Dox
# Description: as §1
# A375 melan = experiment: Cytotoxicity in tumor cell culture, SRB assay; type: cell-based, human; settings: read-out: IC50 against human mouse tumors, A375 melan
# Description: as §1
# [4] = test system: 8226 myeloma, Sens (drug-sensitive); experiment: Cytotoxicity in tumor cell culture, SRB assay; type: cell-based, human
# Description: as §1
# [5] = test system: MCF7 breast, mitox (mitoxantrone-resistant); experiment: Cytotoxicity in tumor cell culture, SRB assay; type: cell-based, human; settings: mitoxantrone-resistant, read-out: IC50 against human mouse tumors, MCF7 breast mitox
# Description: as §1
# L1210 leukemia, Sens = experiment: Cytotoxicity in tumor cell culture, MTT assay; type: cell-based, murine; settings: MTT assay, read-out: IC50 against human mouse tumors, L1210 leukemia Sens
# Description: as §1
# L1210 leukemia, Mdr = experiment: Cytotoxicity in tumor cell culture, MTT assay; type: cell-based, murine; settings: MTT assay, multidrug-resistant, read-out: IC50 against human mouse tumors, L1210 leukemia Mdr
# Description: as §1
# WiDr colon, res = experiment: Cytotoxicity in tumor cell culture, SRB assay; type: cell-based; settings: multidrug-resistant, read-out: IC50 against human mouse tumors, WiDr colon res
# Description: as §1
# WiDr colon, Sens = experiment: Cytotoxicity in tumor cell culture, SRB assay; type: cell-based; settings: read-out: IC50 against human mouse tumors, WiDr colon Sens
# Description: as §1
# [6] = test system: 8226 myeloma, Res (imexon-resistant); experiment: Cytotoxicity in tumor cell culture, SRB assay; type: cell-based; settings: line made resistant to imexon, read-out: IC50 against human mouse tumors, 8226 myeloma Res
# Description: as §1
# [7] = cited from earlier work; remark: listed apart in the source
# [8] = against sensitive myeloma, values repeated from Table 3 (μM there), read-out: IC50
# [9] = drug-sensitive line, read-out: IC50 against human mouse tumors, 8226 myeloma Sens
SMILES,π [2],IC50 (OVCAR3 ovarian) [µM],"IC50 (MCF7 breast, Sens) [µM]",IC50 (A-549 lung) [µM],IC50 [3] [µM],IC50 (A375 melan) [µM],Log(1/C) ([4]; against sensitive myeloma),"IC50 [4, 8] [µM]","IC50 [4, 9] [µM]",IC50 [5] [µM],"IC50 (L1210 leukemia, Sens) [µM]","IC50 (L1210 leukemia, Mdr) [µM]","IC50 (WiDr colon, res) [µM]","IC50 (WiDr colon, Sens) [µM]",IC50 [6] [µM],further results
"CS(=O)(=O)OCCCCOS(C)(=O)=O [Busulfan, 1,4-butanediol dimethanesulfonate]",,,,,,,,,,,,,,,,adults obtaining hematologic remission ([1]; previously untreated chronic myelogenous leukemia): Approximately 90%
"CNC(=O)N1CC1C#N (centres unmarked) [Compound 6, 2-Cyanoaziridine-1-(N-methyl) carboxainide]",0.50,,,,,,,,,,,,,,,"melting point: 98 to 100 °C; IC50 (OVCAR3 ovarian; Homo sapiens, OVCAR-3): 14 µM; IC50 (MCF7 breast, Sens; Homo sapiens, MCF7): 27 µM; IC50 (A-549 lung; Homo sapiens, A549): 22 µM; IC50 ([3]; Homo sapiens, MCF7): 17 µM; IC50 (A375 melan; Homo sapiens, A-375): 17 µM; IC50 ([4]; Homo sapiens, against sensitive myeloma, read-out: Log(1/C) (converted)): 25.7 µM; IC50 ([4]; Homo sapiens, against sensitive myeloma, values repeated from Table 3 (μM there), read-out: IC50): 26 µM; IC50 ([4]; Homo sapiens, drug-sensitive line, read-out: IC50 against human mouse tumors, 8226 myeloma Sens): 26 µM; IC50 ([5]; Homo sapiens, MCF7): 18 µM; IC50 (L1210 leukemia, Sens; Mus musculus, L1210): 8.7 µM; IC50 (L1210 leukemia, Mdr; Mus musculus, L1210): 21 µM; IC50 (WiDr colon, res; Homo sapiens, WiDr): 23 µM; IC50 (WiDr colon, Sens; Homo sapiens, WiDr): 21 µM; IC50 ([6]; Homo sapiens): 26 µM"
"N#CC1CN1C(=O)Nc1ccc(F)cc1 (centres unmarked) [Compound 14, 2-Cyanoaziridine-1-[N-(4-fluorophenyl)]carboxamide]",2.14,5.9,1.9,6.2,2.4,3.4,5.30,5,5,2.7,7.3,5.9,9,2.1,5.9,
"N#CC1CN1C(=O)Nc1ccc(C(F)(F)F)cc1 (centres unmarked) [Compound 15, 2-Cyanoaziridine-1-[N-(4-trifluorophenyl)]carboxamide]",2.88,5.9,1.5,4.3,1.4,11.8,5.09,8.2,8.2,1.3,7.8,7.1,5.8,1.3,7.8,
"N#CC1CN1C(=O)Nc1ccc([N+](=O)[O-])cc1 (centres unmarked) [Compound 16, 2-Cyanoaziridine-1-[N-(4-nitrophenyl)]carboxamide]",1.72,6.5,3,3.9,3,3.9,5.04,9.1,9.1,3,2.6,2.6,3.7,4.3,8.6,
"N#CC1CN1C(=O)Nc1ccc(Cl)cc1Cl (centres unmarked) [Compound 17, 2-Cyanoaziridine-1-[N-(2,4-dichlorophenyl)]carboxamide]",3.42,35,0.9,2.5,1.1,> 39,5.33,4.7,4.7,0.35,207,33,1.9,2.2,9.4,
"N#CC1CN1C(=O)Nc1ccc(Cl)c(Cl)c1 (centres unmarked) [Compound 18, 2-Cyanoaziridine-1-[N-(3,4-dichlorophenyl)]carboxamide]",3.42,5.6,4.6,7.5,7.2,5.9,5.96,1.1,1.1,4.4,2.6,7.2,14,7,2.7,
"CC(=O)Oc1ccccc1NC(=O)N1CC1C#N (centres unmarked) [Compound 21, 2-Cyanoaziridine-1-[N-(2-acetoxyphenyl)]carboxamide]",1.45,10,3.6,5.6,3.2,7.9,5.06,8.7,8.7,3.5,9.6,7.9,9,3.3,9.6,
"N#CC1CN1C(=O)Nc1cccc2ccccc12 (centres unmarked) [Compound 23, 2-Cyanoaziridine-1-[N-(1-naphthyl)]carboxamide]",3.32,5.9,2,2.5,1.7,4.2,5.10,8,8,2,7.2,2.5,2.5,2.4,8.9,
"N#CC1CN1C(=O)Nc1cccnc1 (centres unmarked) [Compound 24, 2-Cyanoaziridine-1-[N-(3-pyridyl)]carboxamide]",0.32,10,4.2,16,6.6,12,4.95,12,12,5.4,11,16,18,6,15,
"N[C@@H](Cc1ccc(N(CCCl)CCCl)cc1)C(=O)O [Melphalan, 4-[bis(2-chloroethyl)amino]-L-phenylalanine]",,,,,,,,,,,,,,,,"patients showing a favorable response ([1]; multiple myeloma, oral administration): one third to one half"
CO[C@@]12[C@H](COC(N)=O)C3=C(C(=O)C(C)=C(N)C3=O)N1C[C@@H]1N[C@@H]12 [Mitomycin],,,,,,,,,,,,,,,,maximal serum concentration ([7]; 10 mg I.V.): 0.52 mg/mL; maximal serum concentration ([7]; 20 mg I.V.): 1.7 mg/mL; maximal serum concentration ([7]; 30 mg I.V.): 2.4 mg/mL; time required to reduce the serum concentration by about 50% ([7]; 30 mg bolus injection): 17 min; dose excreted unchanged in the urine ([7]; in vivo): Approximately 10%

# Reference: patent publication US20030129222A1, “Liposomal imexon” (priority 2000, published 2003)
